Measurements taken from publication PMC11855478, “Bicyclic N,S-Acetals Containing Fused Cysteine-Amide System as New Heterocyclic Class Targeting Human Farnesyltransferase (FTase-h)” (International Journal of Molecular Sciences, 2025).

What was measured:
Format in all cases: cell-based, human
[1] = test system: SNB-19 (CNS Cancer); assay: NCI one dose, SNB-19; conditions: SNB-19, 1.00E-5 Molar one dose
Method: (§1) 3.4. Cell Proliferation Assay
(§2) Selected compounds were tested on a panel of 60 human cancer cell lines at the National Cancer Institute (NCI), Germantown, MD, USA. The cytotoxicity studies were conducted using a 48 h exposure protocol using the sulfo-rhodamine B assay.

[2] = test system: NCI-H522 non-small cell lung cancer cells; assay: NCI cell proliferation, NCI-H522; conditions: for inhibition at 10 µM: read-out: % Cancer cell growth Inhibition (NCI-H522); for Growth Percent: NCI-H522, 1.00E-5 Molar one dose
Method: as §1, §2

[3] = test system: OVCAR-4 (Ovarian Cancer); assay: NCI one dose, OVCAR-4; conditions: OVCAR-4, 1.00E-5 Molar one dose
Method: as §1, §2

[4] = test system: 786-0 (Renal Cancer); assay: NCI one dose, 786-0; conditions: 786-0, 1.00E-5 Molar one dose
Method: as §1, §2

[5] = test system: HS 578T (Breast Cancer); assay: NCI one dose, HS 578T; conditions: 1.00E-5 Molar one dose
Method: as §1, §2

[6] = test system: NCI-H322M (Non-Small Cell Lung Cancer); assay: NCI one dose, NCI-H322M; conditions: 1.00E-5 Molar one dose
Method: as §1, §2

[7] = test system: OVCAR-8 (Ovarian Cancer); assay: NCI one dose, OVCAR-8; conditions: OVCAR-8, 1.00E-5 Molar one dose
Method: as §1, §2

[8] = test system: CCRF-CEM (Leukemia); assay: NCI one dose, CCRF-CEM; conditions: 1.00E-5 Molar one dose
Method: as §1, §2

[9] = test system: RXF 393 (Renal Cancer); assay: NCI one dose, RXF 393; conditions: RXF 393, 1.00E-5 Molar one dose
Method: as §1, §2

[10] = test system: NCI/ADR-RES (Ovarian Cancer); assay: NCI one dose, NCI/ADR-RES; conditions: 1.00E-5 Molar one dose
Method: as §1, §2

[11] = test system: COLO 205 (Colon Cancer); assay: NCI one dose, COLO 205; conditions: COLO 205, 1.00E-5 Molar one dose
Method: as §1, §2

[12] = test system: T-47D (Breast Cancer); assay: NCI one dose, T-47D; conditions: 1.00E-5 Molar one dose
Method: as §1, §2

[13] = test system: NCI-H460 (Non-Small Cell Lung Cancer); assay: NCI one dose, NCI-H460; conditions: NCI-H460, 1.00E-5 Molar one dose
Method: as §1, §2

[14] = test system: SK-MEL-5 (Melanoma); assay: NCI one dose, SK-MEL-5; conditions: SK-MEL-5, 1.00E-5 Molar one dose
Method: as §1, §2

[15] = test system: LOX IMVI (Melanoma); assay: NCI one dose, LOX IMVI; conditions: 1.00E-5 Molar one dose
Method: as §1, §2

[16] = test system: TK-10 (Renal Cancer); assay: NCI one dose, TK-10; conditions: TK-10, 1.00E-5 Molar one dose
Method: as §1, §2

[17] = test system: SF-539 (CNS Cancer); assay: NCI one dose, SF-539; conditions: SF-539, 1.00E-5 Molar one dose
Method: as §1, §2

[18] = test system: UO-31 renal cancer cells; assay: NCI one dose, UO-31; conditions: UO-31, 1.00E-5 Molar one dose
Method: as §1, §2

[19] = test system: KM12 (Colon Cancer); assay: NCI one dose, KM12; conditions: KM12, 1.00E-5 Molar one dose
Method: as §1, §2

[20] = test system: BT-549 (Breast Cancer); assay: NCI one dose, BT-549; conditions: BT-549, 1.00E-5 Molar one dose
Method: as §1, §2

[21] = test system: OVCAR-3 (Ovarian Cancer); assay: NCI one dose, OVCAR-3; conditions: OVCAR-3, 1.00E-5 Molar one dose
Method: as §1, §2

[22] = test system: CAKI-1 (Renal Cancer); assay: NCI one dose, CAKI-1; conditions: CAKI-1, 1.00E-5 Molar one dose
Method: as §1, §2

[23] = test system: HT29 (Colon Cancer); assay: NCI one dose, HT29; conditions: HT29, 1.00E-5 Molar one dose
Method: as §1, §2

[24] = test system: EKVX (Non-Small Cell Lung Cancer); assay: NCI one dose, EKVX; conditions: 1.00E-5 Molar one dose
Method: as §1, §2

[25] = test system: M14 (Melanoma); assay: NCI one dose, M14; conditions: M14, 1.00E-5 Molar one dose
Method: as §1, §2

[26] = test system: SW-620 (Colon Cancer); assay: NCI one dose, SW-620; conditions: SW-620, 1.00E-5 Molar one dose
Method: as §1, §2

[27] = test system: K-562 leukaemia cells; assay: NCI one dose, K-562; conditions: K-562, 1.00E-5 Molar one dose
Method: as §1, §2

[28] = test system: UACC-62 (Melanoma); assay: NCI one dose, UACC-62; conditions: UACC-62, 1.00E-5 Molar one dose
Method: as §1, §2

[29] = test system: MDA-MB-231/ATCC (Breast Cancer); assay: NCI one dose, MDA-MB-231/ATCC; conditions: 1.00E-5 Molar one dose
Method: as §1, §2

[30] = test system: SR (Leukemia); assay: NCI one dose, SR; conditions: 1.00E-5 Molar one dose
Method: as §1, §2

[31] = test system: HOP-92 (Non-Small Cell Lung Cancer); assay: NCI one dose, HOP-92; conditions: HOP-92, 1.00E-5 Molar one dose
Method: as §1, §2

[32] = test system: SK-OV-3 (Ovarian Cancer); assay: NCI one dose, SK-OV-3; conditions: SK-OV-3, 1.00E-5 Molar one dose
Method: as §1, §2

[33] = test system: OVCAR-5 (Ovarian Cancer); assay: NCI one dose, OVCAR-5; conditions: OVCAR-5, 1.00E-5 Molar one dose
Method: as §1, §2

Row | Structure (SMILES) | Growth Percent [1] [%] | inhibition at 10 µM ([2]; Homo sapiens, NCI-H522) [%] | Growth Percent [2] [%] | Growth Percent [3] [%] | Growth Percent [4] [%] | Growth Percent [5] [%] | Growth Percent [6] [%] | Growth Percent [7] [%] | Growth Percent [8] [%] | Growth Percent [9] [%] | Growth Percent [10] [%] | Growth Percent [11] [%] | Growth Percent [12] [%] | Growth Percent [13] [%] | Growth Percent [14] [%] | Growth Percent [15] [%] | Growth Percent [16] [%] | Growth Percent [17] [%] | Growth Percent [18] [%] | Growth Percent [19] [%] | also measured
1 | COc1ccc(CNC(=O)[C@@H]2CS[C@H]3c4ccccc4C(=O)N23)cc1OC [4aI] | 104.62 | 36 | 63.65 | 111.31 | 106.53 | 98.06 | 101.37 | 88.68 | 94.08 | 110.33 | 99.35 | 111.84 | 85.94 | 111.19 | 102.31 | 99.42 | 87.34 | 102.96 | 94.41 | 107.09 | GI50 ([2]; Homo sapiens, NCI-H522): 20.8 µM; Growth Percent [20]: 108.27%; Growth Percent [21]: 116.00%; Growth Percent [22]: 95.39%; Growth Percent [23]: 80.71%; Growth Percent [24]: 114.59%; Growth Percent [25]: 107.33%; Growth Percent [26]: 102.54%; Growth Percent [27]: 84.27%; Growth Percent [28]: 98.01%; Growth Percent [29]: 102.55%; Growth Percent [30]: 74.16%; Growth Percent [31]: 93.36%; Growth Percent [32]: 104.05%; Growth Percent [33]: 102.57%
2 | COc1cccc(CNC(=O)[C@@H]2CS[C@@]3(C)c4ccccc4C(=O)N23)c1 [4bE] | 102.99 | 33 | 67.45 | 94.52 | 105.14 | 95.18 | 102.58 | 90.08 | 94.80 | 107.08 | 98.88 | 115.50 | 96.67 | 104.83 | 101.12 | 101.37 | 95.45 | 104.59 | 91.68 | 107.56 | Growth Percent [20]: 110.64%; Growth Percent [21]: 115.54%; Growth Percent [22]: 85.65%; Growth Percent [23]: 89.19%; Growth Percent [24]: 112.43%; Growth Percent [25]: 104.58%; Growth Percent [26]: 104.85%; Growth Percent [27]: 82.59%; Growth Percent [28]: 91.91%; Growth Percent [29]: 105.57%; Growth Percent [30]: 81.22%; Growth Percent [31]: 101.27%; Growth Percent [32]: 101.46%; Growth Percent [33]: 110.33%
3 | COc1cc(CNC(=O)[C@@H]2CS[C@@]3(C)c4ccccc4C(=O)N23)cc(OC)c1OC [4bJ] | 93.01 | 31 | 68.76 | 97.02 | 102.08 | 94.07 | 99.71 | 92.35 | 90.73 | 98.72 | 101.60 | 105.48 | 87.15 | 105.78 | 102.14 | 105.04 | 102.44 | 98.24 | 90.29 | 106.18 | Growth Percent [20]: 107.75%; Growth Percent [21]: 112.40%; Growth Percent [22]: 89.81%; Growth Percent [23]: 82.56%; Growth Percent [24]: 108.30%; Growth Percent [25]: 108.34%; Growth Percent [26]: 100.88%; Growth Percent [27]: 71.92%; Growth Percent [28]: 92.46%; Growth Percent [29]: 98.30%; Growth Percent [30]: 77.35%; Growth Percent [31]: 88.36%; Growth Percent [32]: 103.62%; Growth Percent [33]: 102.06%
4 | C[C@@]12SC[C@@H](C(=O)NCc3ccc(Cl)cc3Cl)N1C(=O)c1ccccc12 [4bH] | 100.91 | 28 | 71.73 | 93.22 | 103.58 | 91.90 | 92.74 | 93.06 | 84.65 | 102.82 | 96.56 | 109.32 | 79.65 | 104.39 | 92.84 | 101.94 | 105.53 | 100.42 | 86.15 | 101.11 | Growth Percent [20]: 107.71%; Growth Percent [21]: 101.07%; Growth Percent [22]: 86.12%; Growth Percent [23]: 83.74%; Growth Percent [24]: 112.50%; Growth Percent [25]: 108.31%; Growth Percent [26]: 104.06%; Growth Percent [27]: 79.34%; Growth Percent [28]: 81.85%; Growth Percent [29]: 99.81%; Growth Percent [30]: 88.00%; Growth Percent [31]: 106.23%; Growth Percent [32]: 99.25%; Growth Percent [33]: 99.53%
